Reference: patent US12643867B2, “Compositions and uses thereof” (University of Virginia Patent Foundation, priority 2017, dated 2026)

Legend:
[1] = target: Alpha (DGK alpha; only in reference sheet cells) (Rattus norvegicus, UniProt P51556); test: DGK isoform % Activity screen; format: biochemical; conditions: for activity at 100 µM: read-out: 100 uM % Activity (section without isoform head; Alpha)
[2] = system: KS6A1/KS6A2/KS6A3 (Ribosomal protein S6 kinase alpha 1); test: SILAC LC-MS ATP acyl phosphate probe competition, native kinases in HEK293T; format: binding, Homo sapiens (Human); conditions: site Lys2; ATP 1 mM; Ketanserin, Ritanserin 100 μM; RF001 1 mM
Procedure: (§1) Proteomes were diluted to 2 mg/ml in kinase buffer. The light and heavy proteomes (0.5 mg, 250 μL total reaction volume) were pre-treated with vehicle or compound, respectively (5 μL, DMSO (light) or 50× stock in DMSO (heavy)), mixed gently, and incubated at 25° C. for 30 min. […] After incubation, matched light and heavy proteomes were transferred and mixed in a 1:1 ratio in a two-dram vial containing 4:1:3 MeOH/CHCl3/H2O (2 mL MeOH, 500 AL CHCl3, 1.5 mL H2O) for extraction of proteins to remove excess probe, quickly vortexed, and centrifuged at 1,400×g for 3 min to pellet protein. Organic and aqueous layers were removed using a Pasteur pipette, and the protein pellet was transferred to a screw-top tube in 600 μL MeOH. A second extraction was performed by adding CHCl3 (150 μL) and H2O (600 μL) to each sample, vortexed, and centrifuged at 1,400×g for 3 min to pellet protein. Organic and aqueous layers were removed by pipetting. MeOH added to pellet (600 μL) and pellets were re-suspended by sonication (3×1 sec pulse, 20% amplitude) for a final extraction. Samples were then centrifuged at 17,000×g for 5 min to pellet protein and MeOH was removed by pipetting. The pellets were re-suspended in 10 M urea/25 mM ammonium bicarbonate ([…]), brought to a final volume of 1 mL with 25 mM ammonium bicarbonate, reduced with 10 mM DTT for 15 min at 65° C. allowed to cool, and then alkylated with 40 mM iodoacetamide for 30 min at 25° C. in the dark. To desalt the samples, each was transferred to a two-dram glass vial, and to the vial 4:1:2 MeOH/CHCl3/H2O (2 mL MeOH, 500 AL CHCl3, 1 mL H2O) was added. The vials were vortexed quickly, spun at 1.400×g for 3 min to pellet protein, and aqueous and organic layers were removed using a Pasteur pipette. The resulting protein pellet was transferred to a screw-top tube in 600 μL MeOH, and then CHCl3 (150 μL) and HO (600 μL) were added to extract protein a second time. The samples were vortexed quickly, centrifuged at 1,400×g to pellet protein, and the aqueous and organic layers were removed by pipetting. Resulting protein pellet was suspended in MeOH (600 μL) via sonication (3×1 sec pulse, 20% amplitude), centrifuged at 17,000×g for 5 min to pellet protein, and MeOH removed by pipetting. Protein pellets were then re-suspended in 25 mM ammonium bicarbonate (500 μL) and digested with 7.5 μg Trypsin/Lys-C(Promega, 15 μL, 0.5 μg/μL) for 3 h at 37° C. Avidin-agarose beads (Thermo Scientific Pierce, 100 AL aliquot per sample) were washed three times by adding 10 mL DPBS, centrifuged at 1,400×g for 1 min, and decanting. This wash step was repeated for a total of 3 times. Digested protein samples were mixed with washed avidin beads (100 μL) and brought to a volume of 5.5 mL with DPBS in a 15 mL conical and rotated for 1 h to enrich samples for the covalent desthiobiotin modification. The beads were washed with 25 mM ammonium bicarbonate (3× with 10 mL, centrifuge at 1,400×g for 3 min, decant) and then H2O (3× with 10 mL, centrifuge at 1,400×g for 3 min, decant). Washed beads were then transferred to a low-bind microfuge tube, centrifuged at 1,400×g for 3 min, allowed to rest for 1 min to settle beads, and then excess H2O was removed carefully using a gel-loading pipette tip. To elute peptides, 100 μL of elution buffer (50% acetonitrile, ACN; 0.1% formic acid) was added to each sample and incubated for 3 min. Beads were spun down at 1.400×g for 3 min, allowed to rest for 1 min to settle beads, and then 75 μL of peptide-containing supernatant was removed carefully using a gel-loading pipette tip and transferred to a new low bind centrifuge tube. This step was repeated two more times with 75 μL of elution buffer and all eluent were collected into the same centrifuge tube (˜225 μL total). Peptides were dried on a speed vacuum, resulting peptide samples acidified in 5% (v/v) formic acid, and stored at −80° C. until analysis.
(§2) The peptide samples were analyzed by liquid chromatography-mass spectrometry. […]

[3] = system: KS6A4/KS6A5 (Ribosomal protein S6 kinase alpha 4); test: as above; format: binding, Homo sapiens (Human); conditions: site ATP Loop; ATP 1 mM; Ketanserin, Ritanserin 100 μM; RF001 1 mM
Procedure: as §1, §2

[4] = system: MP2K1/MP2K2 (Dual specificity mitogen-activated protein kinase kinase 1); test: as above; format: binding, Homo sapiens (Human); conditions: site Lys2; ATP 1 mM; Ketanserin, Ritanserin 100 μM; RF001 1 mM
Procedure: as §1, §2

[5] = system: STK3/STK4 (Serine/threonine-protein kinase 3); test: as above; format: binding, Homo sapiens (Human); conditions: site Lys2; ATP 1 mM; Ketanserin, Ritanserin 100 μM; RF001 1 mM
Procedure: as §1, §2

[6] = system: M4K4/MINK1/TNIK (Mitogen-activated protein kinase kinase kinase kinase 4); test: as above; format: binding, Homo sapiens (Human); conditions: site Lys2; ATP 1 mM; Ketanserin, Ritanserin 100 μM; RF001 1 mM
Procedure: as §1, §2

[7] = system: MARK3/MARK4 (MAP/microtubule affinity-regulating kinase 3); test: as above; format: binding, Homo sapiens (Human); conditions: site Lys1; ATP 1 mM; Ketanserin, Ritanserin 100 μM; RF001 1 mM
Procedure: as §1, §2

[8] = system: AAPK1/AAPK2 (5′-AMP-activated protein kinase catalytic subunit alpha-1); test: as above; format: binding, Homo sapiens (Human); conditions: site Lys2; ATP 1 mM; Ketanserin, Ritanserin 100 μM; RF001 1 mM
Procedure: as §1, §2

[9] = system: recombinant DGKs and native kinases in HEK293T proteomes; test: Quantitative chemical proteomics, summary over kinases; format: binding; conditions: for number of kinase targets that show SR≥2: recombinant DGKs and native kinases
Procedure: as §1, §2

[10] = target: T1, M3K4 (Mitogen-activated protein kinase kinase kinase 4) (Homo sapiens, UniProt Q9Y6R4); test: SILAC LC-MS ATP acyl phosphate probe competition, native kinases in HEK293T; format: binding; conditions: site Lys2; ATP 1 mM; Ketanserin, Ritanserin 100 μM; RF001 1 mM
T1 construct: Native kinases; endogenous in cells; host or cells: HEK293T soluble proteome
Procedure: as §1, §2

[11] = target: T2, KCC2G (Calcium/calmodulin-dependent protein kinase type II gamma chain) (Homo sapiens, UniProt Q13555); test: as above; format: binding; conditions: site Lys1; ATP 1 mM; Ketanserin, Ritanserin 100 μM; RF001 1 mM
T2 construct: measured against >50 native kinases quantified in HEK293T soluble proteomes; endogenous in cells; host or cells: HEK293T soluble proteome
Procedure: as §1, §2

T2 sequence (Q13555 whole entry): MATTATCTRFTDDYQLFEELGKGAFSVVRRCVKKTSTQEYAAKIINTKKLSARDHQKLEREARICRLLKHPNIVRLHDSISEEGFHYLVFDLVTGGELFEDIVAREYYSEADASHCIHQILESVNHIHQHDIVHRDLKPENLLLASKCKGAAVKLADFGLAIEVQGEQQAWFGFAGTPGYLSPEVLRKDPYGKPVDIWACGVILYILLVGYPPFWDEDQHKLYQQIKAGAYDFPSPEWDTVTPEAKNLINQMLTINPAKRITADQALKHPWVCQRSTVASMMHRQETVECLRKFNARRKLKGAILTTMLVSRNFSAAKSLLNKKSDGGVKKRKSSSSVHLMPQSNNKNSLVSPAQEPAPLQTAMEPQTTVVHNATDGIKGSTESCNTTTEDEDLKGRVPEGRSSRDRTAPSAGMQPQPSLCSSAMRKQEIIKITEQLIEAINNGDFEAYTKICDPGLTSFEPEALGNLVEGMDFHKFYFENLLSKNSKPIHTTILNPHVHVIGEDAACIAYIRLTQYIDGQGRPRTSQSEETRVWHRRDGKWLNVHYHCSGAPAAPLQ
T1 sequence (Q9Y6R4 whole entry): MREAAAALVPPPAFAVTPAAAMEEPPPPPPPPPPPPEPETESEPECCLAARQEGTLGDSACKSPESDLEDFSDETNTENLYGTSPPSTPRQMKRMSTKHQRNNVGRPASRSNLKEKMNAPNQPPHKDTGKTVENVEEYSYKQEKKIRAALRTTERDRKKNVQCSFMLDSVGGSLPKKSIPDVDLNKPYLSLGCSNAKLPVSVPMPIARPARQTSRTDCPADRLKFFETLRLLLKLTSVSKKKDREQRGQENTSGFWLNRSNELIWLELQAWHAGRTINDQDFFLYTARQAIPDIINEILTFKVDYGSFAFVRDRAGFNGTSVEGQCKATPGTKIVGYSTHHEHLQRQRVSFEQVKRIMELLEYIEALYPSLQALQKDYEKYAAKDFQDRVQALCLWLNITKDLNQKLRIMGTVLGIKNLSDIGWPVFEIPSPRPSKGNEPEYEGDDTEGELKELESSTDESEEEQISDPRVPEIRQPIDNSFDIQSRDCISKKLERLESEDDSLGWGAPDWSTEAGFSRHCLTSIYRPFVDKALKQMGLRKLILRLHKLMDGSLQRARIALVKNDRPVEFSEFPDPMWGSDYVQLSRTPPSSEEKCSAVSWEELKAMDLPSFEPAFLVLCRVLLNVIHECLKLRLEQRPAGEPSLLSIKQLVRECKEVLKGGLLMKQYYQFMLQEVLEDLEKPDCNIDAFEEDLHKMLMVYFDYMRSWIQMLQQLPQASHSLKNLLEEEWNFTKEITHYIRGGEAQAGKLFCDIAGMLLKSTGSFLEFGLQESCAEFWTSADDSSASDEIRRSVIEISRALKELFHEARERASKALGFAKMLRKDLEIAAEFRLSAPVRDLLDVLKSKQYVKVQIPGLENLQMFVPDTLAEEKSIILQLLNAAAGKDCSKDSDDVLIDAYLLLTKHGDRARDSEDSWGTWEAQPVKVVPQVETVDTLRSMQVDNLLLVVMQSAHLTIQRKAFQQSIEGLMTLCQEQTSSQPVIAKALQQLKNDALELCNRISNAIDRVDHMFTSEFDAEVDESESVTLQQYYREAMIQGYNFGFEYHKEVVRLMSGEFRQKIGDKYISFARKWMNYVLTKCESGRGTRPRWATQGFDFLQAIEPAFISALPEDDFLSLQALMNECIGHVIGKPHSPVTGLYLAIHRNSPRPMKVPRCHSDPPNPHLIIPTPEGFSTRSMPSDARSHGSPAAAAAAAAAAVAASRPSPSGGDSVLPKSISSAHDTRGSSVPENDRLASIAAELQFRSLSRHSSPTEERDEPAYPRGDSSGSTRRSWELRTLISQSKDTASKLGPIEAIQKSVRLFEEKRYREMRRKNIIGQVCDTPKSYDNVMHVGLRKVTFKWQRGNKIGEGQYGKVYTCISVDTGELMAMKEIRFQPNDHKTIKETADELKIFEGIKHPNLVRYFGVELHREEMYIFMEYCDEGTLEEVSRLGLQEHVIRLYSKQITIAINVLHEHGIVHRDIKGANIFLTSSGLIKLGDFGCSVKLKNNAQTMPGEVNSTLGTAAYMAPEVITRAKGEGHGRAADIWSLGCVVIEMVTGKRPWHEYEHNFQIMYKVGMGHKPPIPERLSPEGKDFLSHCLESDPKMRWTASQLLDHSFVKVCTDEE
Chain of Alpha (DGK alpha; only in reference sheet cells) (P51556 whole entry, canonical isoform): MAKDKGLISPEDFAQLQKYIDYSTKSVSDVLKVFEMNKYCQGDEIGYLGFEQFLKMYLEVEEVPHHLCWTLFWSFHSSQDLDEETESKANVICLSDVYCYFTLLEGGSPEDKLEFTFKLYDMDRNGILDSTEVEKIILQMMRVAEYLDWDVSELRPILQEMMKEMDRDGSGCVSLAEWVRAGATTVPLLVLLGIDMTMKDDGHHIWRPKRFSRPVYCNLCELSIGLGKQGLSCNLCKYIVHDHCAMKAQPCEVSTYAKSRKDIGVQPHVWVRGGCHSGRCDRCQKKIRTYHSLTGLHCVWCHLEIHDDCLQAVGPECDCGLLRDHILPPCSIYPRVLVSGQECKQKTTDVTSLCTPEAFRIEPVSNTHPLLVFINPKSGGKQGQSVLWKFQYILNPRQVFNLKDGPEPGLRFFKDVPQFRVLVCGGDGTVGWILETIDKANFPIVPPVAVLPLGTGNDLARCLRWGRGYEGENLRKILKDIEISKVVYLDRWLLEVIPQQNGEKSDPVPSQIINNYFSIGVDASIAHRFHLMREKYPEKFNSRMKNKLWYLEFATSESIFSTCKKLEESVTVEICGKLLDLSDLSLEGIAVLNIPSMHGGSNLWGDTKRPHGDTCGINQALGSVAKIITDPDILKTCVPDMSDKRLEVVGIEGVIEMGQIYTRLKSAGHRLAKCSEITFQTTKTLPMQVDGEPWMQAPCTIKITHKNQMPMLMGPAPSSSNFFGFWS

| activity at 100 µM [1] | SILAC ratio, KS6A1/KS6A2/KS6A3 probe-modified peptide [2] | SILAC ratio, KS6A4/KS6A5 probe-modified peptide [3] | SILAC ratio, MP2K1/MP2K2 probe-modified peptide [4] | SILAC ratio, STK3/STK4 probe-modified peptide [5] | SILAC ratio, M4K4/MINK1/TNIK probe-modified peptide [6] | SILAC ratio, MARK3/MARK4 probe-modified peptide [7] | SILAC ratio, AAPK1/AAPK2 probe-modified peptide [8] | SILAC ratio, M3K4 probe-modified peptide [10] | SILAC ratio, KCC2G probe-modified peptide [11] | activity at 1000 µM ([1]; read-out: 1 mM % Activity (section without isoform head; Alpha)) | kinase targets with potent activity (SR≥5) ([9]; all detectable kinases) | Structure (SMILES) | competition at probe-binding sites ([9]; 100 μM) | average SILAC ratio at all detected probe-modified sites of other DGK subtypes ([9]; 1 mM) | number of kinase targets that show SR≥2 [9] | SILAC ratio at all binding sites detected, other DGK isoforms ([9]; 100 μM) |
| --- | --- | --- | --- | --- | --- | --- | --- | --- | --- | --- | --- | --- | --- | --- | --- | --- |
| 99% | 1.4 | 1.3 | 1.3 | 1.2 | 1.3 | 1.4 | 1.4 | 1.2 | 1.5 |  |  | O=C(c1ccc(F)cc1)C1CCN(CCn2c(=O)[nH]c3ccccc3c2=O)CC1 [Ketanserin] | negligible competition at all probe-binding sites |  |  |  |
| 75% | 1.2 | 1.1 | 0.9 | 0.9 | 1.1 | 1.1 | 1.1 | 0.8 | 1.6 | 0% | a single kinase target | Fc1ccc(C(=C2CCNCC2)c2ccc(F)cc2)cc1 [RF001, 4-(Bis(4-fluorophenyl)methylene) piperidine] |  | ~1 | 3 |  |

| Structure (SMILES) | activity at 100 µM [1] | SILAC ratio, KS6A1/KS6A2/KS6A3 probe-modified peptide [2] | SILAC ratio, KS6A4/KS6A5 probe-modified peptide [3] | SILAC ratio, MP2K1/MP2K2 probe-modified peptide [4] | SILAC ratio, STK3/STK4 probe-modified peptide [5] | SILAC ratio, M4K4/MINK1/TNIK probe-modified peptide [6] | SILAC ratio, MARK3/MARK4 probe-modified peptide [7] | SILAC ratio, AAPK1/AAPK2 probe-modified peptide [8] | SILAC ratio, M3K4 probe-modified peptide [10] | SILAC ratio, KCC2G probe-modified peptide [11] | activity at 1000 µM ([1]; read-out: 1 mM % Activity (section without isoform head; Alpha)) | kinase targets with potent activity (SR≥5) ([9]; all detectable kinases) | competition at probe-binding sites ([9]; 100 μM) | average SILAC ratio at all detected probe-modified sites of other DGK subtypes ([9]; 1 mM) | number of kinase targets that show SR≥2 [9] | SILAC ratio at all binding sites detected, other DGK isoforms ([9]; 100 μM) |
| --- | --- | --- | --- | --- | --- | --- | --- | --- | --- | --- | --- | --- | --- | --- | --- | --- |
| Cc1nc2sccn2c(=O)c1CCN1CCC(=C(c2ccc(F)cc2)c2ccc(F)cc2)CC1 [Ritanserin] | 52% | 2.0 | 2.2 | 1.9 | 1.6 | 1.8 | 2.0 | 2.4 | 1.9 | 2.7 |  |  |  |  | 25 | < 2 |
